ChEMBL document CHEMBL1201862, “PubChem BioAssay data set” (2004)
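Cultured in 96-well plates, cells were exposed to test compound for 48 hours across five concentrations. GI50 marks 50% less growth.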 Activity calls are given as the source filed them. Rule as the data show it: active = GI50 up to about 1.1 µM and inactive = higher.

Tests used:
Assay in all cases: growth of human tumour cells (NCI), 48 h
[1] = system: DMS-273
[2] = system: DLD-1
[3] = system: DMS-114
[4] = system: HOP-18
[5] = system: RXF 631
[6] = system: XF498
[7] = system: Hs-578T
[8] = system: PC-3
[9] = system: BT-549

Compound | GI50 [1] | GI50 [2] | GI50 [3] | GI50 [4] | GI50 [5] | GI50 [6] | GI50 [7] | GI50 [8] | GI50 [9]
O=C1c2ccccc2C(=O)N1CCCOCc1cnc(O)nc1O | > 100 µM (inactive) | > 100 µM (inactive) | > 100 µM (inactive) | > 100 µM (inactive) | > 100 µM (inactive) | > 100 µM (inactive) |  |  | 
N#CC(c1ccccc1)(c1ccccc1)[C@@H](c1ccccc1)[C@H](Cc1ccccc1)NS(=O)(=O)c1ccccc1 |  |  |  |  |  |  | > 100 µM (inactive) | 46.7 µM (inactive) | > 100 µM (inactive)
O=C1C(=O)N(c2ccc(Cl)cc2Cl)C(=O)C(=O)C1c1nc2ccccc2o1 | > 100 µM (inactive) | > 100 µM (inactive) |  | > 100 µM (inactive) | > 100 µM (inactive) | > 100 µM (inactive) |  |  | 
CCOC(=O)c1ccc(/N=N\c2ccc(N(CCC#N)CCC#N)cc2C)cc1 | > 100 µM (inactive) | > 100 µM (inactive) | > 100 µM (inactive) | 51.6 µM (inactive) | > 100 µM (inactive) |  |  |  | 
CC1=NN(c2ccccc2)C(=O)C1/N=N/c1ccc(Br)c(C)c1 (configuration not stated) | > 100 µM (inactive) | > 100 µM (inactive) | > 100 µM (inactive) | 0.0562 µM (active) | > 100 µM (inactive) | > 100 µM (inactive) |  |  | 
CCOC(=O)c1cnc2c(ccc3ncccc32)c1OCC | > 100 µM (inactive) | 77.3 µM (inactive) | > 100 µM (inactive) | > 100 µM (inactive) | 84.5 µM (inactive) |  |  |  | 
CN(Cc1ccccc1)/C(=N\C#N)N(Cc1ccccc1)Cc1ccccc1 | 20.9 µM (inactive) | 21 µM (inactive) |  |  |  |  | 34.8 µM (inactive) | 14.8 µM (inactive) | 19.3 µM (inactive)
O=C1NC2C(CCO)CC=C[C@H]2c2cc3c(cc21)OCO3 (some centres not stated) | > 100 µM (inactive) | > 100 µM (inactive) | > 100 µM (inactive) |  |  |  |  |  | 
COC(=O)C(C(=O)OC)C1CCCC(=O)C1 (configuration not stated) | > 100 µM (inactive) | > 100 µM (inactive) |  | > 100 µM (inactive) |  | > 100 µM (inactive) |  |  | 
NC1=NC2=C(CCCC2)C(c2cccs2)S1 (configuration not stated) | > 100 µM (inactive) |  | 42.8 µM (inactive) | 33.5 µM (inactive) |  | > 100 µM (inactive) |  |  | 
C/C(=N/O)C1CC=C(S(=O)(=O)c2ccccc2)C1 (configuration not stated) | > 100 µM (inactive) | > 100 µM (inactive) |  |  |  |  |  |  | 
CCCC1C(=O)CCc2c(OC)ccc(OC)c21 (configuration not stated) | > 100 µM (inactive) | > 100 µM (inactive) | 48.2 µM (inactive) | 2.61 µM (inactive) |  | > 100 µM (inactive) |  |  | 
CC(C)(C)C1CCC2c3c([nH]c4ncccc34)C3C(=O)N(c4ccccc4)C(=O)C3C2C1 (configuration not stated) | > 100 µM (inactive) | > 100 µM (inactive) | 80 µM (inactive) | > 100 µM (inactive) |  | > 100 µM (inactive) |  |  | 
Cc1cc(C)nc(NS(=O)(=O)c2ccc(NC(=O)c3cccc4c(=O)c5ccccc5[nH]c34)cc2)n1 | 22.1 µM (inactive) | 20.7 µM (inactive) | 18.4 µM (inactive) | 18.5 µM (inactive) | 60 µM (inactive) | 13.5 µM (inactive) |  |  | 
O=C1C2=C(CC3C(C2)C3(Br)Br)C(=O)C2=C1CC1C(C2)C1(Br)Br (configuration not stated) | > 100 µM (inactive) | > 100 µM (inactive) |  | > 100 µM (inactive) | > 100 µM (inactive) | > 100 µM (inactive) |  |  | 
CC(C)(C)NC(=O)C12C3C4C1C1C2C3C41I (configuration not stated) | > 100 µM (inactive) |  | > 100 µM (inactive) |  | > 100 µM (inactive) | > 100 µM (inactive) |  |  | 
O=C1CSC2(CC(/C=C/c3cccs3)=NN2c2cccc(S(=O)(=O)O)c2)N1c1nc2ccccc2s1 (configuration not stated) |  |  |  |  |  |  | > 100 µM (inactive) | > 100 µM (inactive) | 11.9 µM (inactive)
COC(=O)c1cc(-c2ccc(OC)c(OC)c2)oc1-c1ccc(OC)c(OC)c1 | 67.1 µM (inactive) | 30.1 µM (inactive) | 31.9 µM (inactive) | 29.2 µM (inactive) | 30.5 µM (inactive) | 37.3 µM (inactive) |  |  | 

Compound | GI50 [1] | GI50 [2] | GI50 [3] | GI50 [4] | GI50 [5] | GI50 [6] | GI50 [7] | GI50 [8] | GI50 [9]
Cc1cccc(C)c1NC(=O)C(=O)C(C(=O)c1ccccc1-c1ccccc1)C1OC(=O)c2ccccc21 (configuration not stated) |  | 17.5 µM (inactive) | 13.7 µM (inactive) |  | 31.8 µM (inactive) | 15.9 µM (inactive) |  |  | 
CSc1ccc(-c2cn3ccsc3n2)c(O)c1 | 32.8 µM (inactive) | 40.4 µM (inactive) | 26.1 µM (inactive) | > 76.6 µM (inactive) | > 70.8 µM (inactive) | 30.2 µM (inactive) |  |  | 
[N-]=[N+]=Nc1ccccc1Oc1ccccc1 | > 100 µM (inactive) | > 100 µM (inactive) | > 100 µM (inactive) |  |  | > 100 µM (inactive) |  |  | 
O=C(NCCCN1CCN(CCCNC(=O)Nc2cc(Cl)ccc2Cl)CC1)Nc1cc(Cl)ccc1Cl | 22.3 µM (inactive) | > 100 µM (inactive) | 38.5 µM (inactive) | > 100 µM (inactive) |  | > 100 µM (inactive) |  |  | 
Cc1cccc(NC2=NC(=O)C(CC(=O)Nc3ccc(Cl)cc3C)S2)c1 (configuration not stated) | > 100 µM (inactive) | > 100 µM (inactive) | > 100 µM (inactive) | > 100 µM (inactive) | > 100 µM (inactive) |  |  |  | 
CCC(O)CCCCCCCCCCCCCCC(=O)O (configuration not stated) | > 100 µM (inactive) | > 100 µM (inactive) | > 100 µM (inactive) | > 100 µM (inactive) | 78.3 µM (inactive) | > 100 µM (inactive) |  |  | 
CN(C)c1ccc(C(C#N)NNC(=O)Cc2ccccc2)cc1 (configuration not stated) | > 100 µM (inactive) | > 100 µM (inactive) | > 100 µM (inactive) | > 100 µM (inactive) |  |  |  |  | 
CC1=C(c2cc(C(=O)Nc3ccc(Cl)cc3)nc(S)n2)Sc2ccccc2N1 | > 100 µM (inactive) | > 100 µM (inactive) | > 100 µM (inactive) | > 100 µM (inactive) | > 100 µM (inactive) | > 100 µM (inactive) |  |  | 
CCN(CC)CCCNC(=O)Cc1ccccc1Nc1c(Cl)cccc1Cl | 14.9 µM (inactive) | 15 µM (inactive) | 13.6 µM (inactive) |  |  | 8.13 µM (inactive) |  |  | 
CC(N)C(C)c1ccccc1 (configuration not stated) | > 100 µM (inactive) | > 100 µM (inactive) | > 100 µM (inactive) | > 100 µM (inactive) |  | > 100 µM (inactive) |  |  | 
COc1ccc([C@@H]2C[C@@H]3C(=O)OC(=O)[C@@H]3c3c2c2ccccc2n3C)cc1 | > 100 µM (inactive) | > 100 µM (inactive) | > 100 µM (inactive) |  | > 100 µM (inactive) | > 100 µM (inactive) |  |  | 
Nc1c(-c2ccc(Cl)cc2)[n+]([O-])c2ccccc2[n+]1[O-] | > 100 µM (inactive) | 88.7 µM (inactive) | 46.1 µM (inactive) | 20.7 µM (inactive) |  | 42.7 µM (inactive) |  |  | 
CC[N+](CC)(CC)Cc1cn(S(=O)(=O)c2ccccc2)c2ccccc12 | > 100 µM (inactive) | > 100 µM (inactive) | > 100 µM (inactive) |  |  | > 100 µM (inactive) |  |  | 
Cc1cc(NS(=O)(=O)c2ccc(NC(=O)c3cccc4c(Nc5ccc(S(=O)(=O)Nc6cc(C)on6)cc5)c5ccc(Cl)cc5nc34)cc2)no1 | 85.1 µM (inactive) | 63.2 µM (inactive) | 38.9 µM (inactive) | 14.9 µM (inactive) |  | 56.6 µM (inactive) |  |  | 
O=C(Cn1ccnc1[N+](=O)[O-])NCCO [ETANIDAZOLE] |  |  |  |  |  |  | > 100 µM (inactive) | > 100 µM (inactive) | > 100 µM (inactive)
CC(C)c1cccc(=O)c(O)c1 [HINOKITIOL] | 3.83 µM (inactive) | 5.31 µM (inactive) | 3.72 µM (inactive) | 15.3 µM (inactive) | 30.5 µM (inactive) | 4.24 µM (inactive) |  |  | 
Clc1ccc(COC(Cn2ccnc2)c2ccc(Cl)cc2Cl)c(Cl)c1 (configuration not stated) [MICONAZOLE] |  |  |  |  |  |  | 13.4 µM (inactive) | 7.08 µM (inactive) | 15 µM (inactive)
